US5707815A, “Mammalian monocyte chemoattractant protein receptors and assays using them” (Regents of the University of California, priority 1995, dated 1998)
Read-outs that look alike come from different tables or passages of the source.

How the values were obtained:
MCP-1RB receptor [1] = type: cell-based, human; details: for IC50: Table I, read-out: Inhibition of Adenylyl Cyclase IC50 (nM) MCP-1RB; for activation of the MCP-1 receptor in the adenylyl cyclase assay: high concentrations
Protocol: (§1) To investigate inhibition of adenylyl cyclase activity, HEK-293 cells stably-transfected with the MCP-1RB receptor and the MIP-1α/RANTES receptor were grown until confluent in 24-well tissue culture dishes and labeled overnight with 2 μCi/ml of [^3 H]adenine (25-30 Ci/mmol) (New England Nuclear, Boston, Mass.) in MEM-EBSS supplemented with 10% FCS. The next day, the cells were washed by incubation at room temperature with 0.5 ml of serum-free MEM-EBSS media supplemented with 10 mM HEPES, 1 mg/ml BSA, and 1 mM IBMX (3-isobutyl-1-methylxanthine) for 5 min. […] The incubation was terminated by replacement of the media with 1 ml of ice-cold 5% TCA (trichloroacetic acid), 1 mM cAMP, and 1 mM ATP (Sigma). Following incubation at 4° C. for 30 min, the labeled [^3 H]ATP and [3H]cAMP pools were separated and quantitated by chromatography on Dowex 50W (200-400 mesh, hydrogen form, from Sigma) and neutral alumina columns (also from Sigma), as described in Hung, J. Biol. Chem. 267:20831-34 (1992) and Wong, Nature 351: 63-65 (1991). The 1 ml acid supernatant was loaded onto a 1-ml Dowex 50W column and the ATP pool eluted with 3 ml of H2 O. The Dowex 50W columns were then placed over 1-ml alumina columns, and 10 ml of H2 O was added to the Dowex resin and the eluant allowed to drop directly onto the neutral alumina. The cAMP pool was then eluted directly from the alumina with 5 ml of 0.1M imidazole/0.01mM sodium azide. The [^3 H]ATP and [^3 H]cAMP fractions were counted by liquid scintillation spectroscopy. The cAMP pool for each sample was normalized to its own ATP pool and expressed as a ratio by the equation (cAMP cpms/ATP cpms)×100. In each experiment full dose-response curves were generated and expressed as a percent of the forskolin control.
(§2) Inhibition of MCP-1RB receptor activation by bordetella pertussis toxin was investigated. Pertussis toxin (List Biological Labs, Inc., Campbell, Calif.) was dissolved in 0.01M sodium phosphate, pH 7.0, 0.05M sodium chloride and diluted into normal serum containing media at final concentrations of 0.1 ng/ml to 100 ng/ml, and incubated with cells overnight (14-16 h) at 37° C. The conditions of the Pertussis toxin treatment of the 293 cells were identical for calcium fluorimetric and adenylyl cyclase experiments. In the adenylyl cyclase experiments, the Pertussis toxin was added at the same time as [^3 H]adenine.
(§3) Dose response curves generated in the calcium fluorimetric and adenylyl cyclase inhibition assays were fit by a nonlinear least squares program to the logistic equation:
(§4) Effect=max effect/[1+(EC50 /(agonist)^n)]
(§5) where n and EC50 represent the Hill coefficient and the agonist concentration that elicited a half-maximal response, respectively, and were derived from the fitted curve. Curve fitting was done with the computer program "Prism" (by Graph Pad, San Diego, Calif.). Results represent the mean ±SE. The 95% confidence intervals (CI) of the EC50 and IC50 values, when given, were calculated from the log EC50 and IC50 values, respectively.

MCP-1RB receptor [2] = test: Intracellular calcium mobilization (indo-1) in stably transfected MCP-1RB/293 cells; type: cell-based, human; details: for block of stimulation of the cells by MCP-1 / stimulation of calcium signals: MCP-1RB/293 cells; for stimulation of calcium signals: high concentrations
Protocol: Calcium mobilization in 293 cells was then investigated. Transfected HEK-293 cells were grown until confluent, trypsinized briefly, washed with phosphate buffered saline containing 1 mg/ml BSA (PBS-BSA), and resuspended in serum-free MEM-EBSS supplemented with 1 mg/ml BSA and 10 mM HEPES (pH 7.0) at a density of 2×10^7 cells/ml. The cells were incubated in the dark at 37° C. for 20 min in the presence of 5-10 μg/ml indo-1 AM (Molecular Probes, Inc., Eugene, Oreg.). Nine volumes of PGS-BSA were added, and the cells were incubated for an additional 10 min at 37° C., pelleted by centrifugation, and washed twice with 50 ml of the PBS-BSA solution. Washed, indo-1-loaded cells were then resuspended in Hank's Balanced Salt Solution (1.3 mM Ca^2+) supplemented with 1 mg/ml BSA (HBS-BSA) at a density of approximately 0.5×10^6 cells/ml at room temperature. To measure intracellular calcium ([Ca^2+ ]i), 0.5 ml of the cell suspension was placed in a quartz cuvette in a Hitachi F-2000 fluorescence spectrophotometer. […] Intracellular calcium was measured by excitation at 350 nm and fluorescence emission detection at 490 nm (F1) and 410 nm (F2) wavelengths. The [Ca^2+ ]i was estimated by comparing the 490/410 fluorescence ratio after agonist application (R) to that of calibration ratios measured at the end of each run, according to the equation:
[Ca^2+ ]i =Kd ×[(R--Rmin)/(Rmax
where Rmax and Rmin represent the fluorescence ratio under saturating (1.3 mM Ca^2+) and nominally free (10 mM EGTA, Sigma Chemical Co.) calcium conditions, Kd is the dissociation constant of calcium for indo-1, R is the fluorescence ratio, and Sf2/Sb2 is the fluorescence ratio of free and bound indo-1 dye at 410 nm. See Thomas, AP and Delaville, F (1991) in Cellular Calcium, a Practical Approach, Oxford Univ. Press, pp. 1-54.
To quantirate calcium responses, MCP-1 dose response curves were generated in each experiment and the results were expressed as a percent of the maximum calcium signal (at 300 nM MCP-1) measured in that experiment. The changes in [Ca^2+ ]i levels in response to each concentration of agonist were determined by subtracting the baseline from peak [Ca^2+ ]i levels, which were determined by averaging 5 seconds of data prior to agonist addition and surrounding the peak response, respectively. In experiments done to determine the role of extracellular calcium, 3 mM EGTA was added 60-90 seconds prior to MCP-1. […] All experiments were performed at room temperature.
as §2, §3, §4, §5

MCP-1RA = test: Ca45 efflux assay in Xenopus oocytes injected with MCP-1RA cRNA; type: cell-based, human; details: ligand at 500 nM
Protocol: (§6) The calcium efflux assay was performed to confirm expression of functional MCP-1R protein and to determine whether the MCP-1 receptors A and B conferred responsiveness to MCP-1 or other chemokines. In this assay, MCP-1RA and 1RB cRNA was microinjected into Xenopus oocytes and receptor signaling activities measured by detection of agohist-induced calcium mobilization.
(§7) As described in Vu, Cell 64:1057-68(1991), cRNA was prepared by SP6 RNA polymerase transcription from a NotI linearized vector and run on an agarose gel to confirm a single band of the expected size. One day after harvesting, oocytes were injected with 20 ng of cRNA in a total volume of 50 nl per oocyte. After incubation in modified Barth's buffer for 2 days at 16° C., the oocytes were loaded with Ca^45 (50 uCi/ml, Amersham, Arlington Heights, Va.) for 3 hours, washed for one hour, and placed into wells of a 24-well dish in groups of seven, in a volume of 0.5 ml Ca^45 efflux was determined by collecting the media at 10 minute intervals and counting beta emissions in a liquid scintillation counter. […] Uninjected oocytes were used as controls.

MCP-1RB = test: Ca45 efflux assay in Xenopus oocytes injected with MCP-1RB cRNA; type: cell-based, human; details: ligand at 500 nM
Protocol: as §6, §7

MCP-1RB receptor [3] = test: Equilibrium binding of 125I-MCP-1 to MCP-1RB expressing HEK-293 cells; set-up: species or system human; details: unlabeled chemokine, 500 pM 125I-labeled MCP-1
Protocol: Equilibrium binding assays were then performed using the method of Ernst, J. Immunol. 152:3541-49 (1994). […] Competition experiments were performed using 500 pM ^125 I-labeled MCP-1 and the concentrations of unlabeled chemokines as indicated in FIG. 7A-B.
Equilibrium binding data were analyzed according to the method of Scatchard using the program "LIGAND" (Biosoft, Ferguson, Mo.) on a Macintosh computer. See Munson, Anal. Biochem. 107: 220-39 (1980).

MIP-1α/RANTES receptor = test: Inhibition of adenylyl cyclase (cAMP accumulation) in HEK-293 cells stably transfected with MIP-1α/RANTES receptor; type: cell-based; details: for activation of the MIP-1α/RANTES receptor: at up to 1 μM
Protocol: as §1
In similar experiments the MIP-1α/RANTES receptor was stably transfected into 293 cells and also found to mediate potent and dose-dependent inhibition of adenylyl cyclase activity. Unlike the MCP-1RB receptor, however, the MIP-1α/RANTES receptor was activated by multiple chemokines with varying degrees of potency.
as §3, §4, §5

MM6 cells = test: MCP-1 induced calcium flux in MM6 cells (calcium efflux assay); type: cell-based, human; details: label = chemokine given first, MCP-1 versus RANTES (or MIP-1α)
Protocol: Because monocytes are difficult to isolate in usable quantity and express less than 2000 high affinity MCP-1 binding sites per cell, a cultured cell line that responded well to MCP-1 had to be identified. Using the calcium effiux assay as described in Vu, Cell 64:1057-68(1991), MCP-1 induced calcium fluxes in various cell lines were measured. […] In contrast, a dose-dependent calcium flux was detected in MM6 cells, with half maximal stimulation at 4nM MCP-1.

[4] = pretreatment overnight, 0.1 to 100 ng/ml
[5] = MIP-1α/RANTES receptor, read-out: IC50 for inhibition of adenylyl cyclase

Row | Molecule | calcium efflux response elicited (MCP-1RA) | calcium efflux response elicited (MCP-1RB) | competition for 125I-MCP-1 binding (MCP-1RB receptor [3]) | block of stimulation of the cells by MCP-1 (MCP-1RB receptor [2]) | stimulation of calcium signals (MCP-1RB receptor [2]) | IC50 (MCP-1RB receptor [1]) | activation of the MCP-1 receptor in the adenylyl cyclase assay (MCP-1RB receptor [1]) | other results
1 | C=C[C@@]1(C)CC(=O)[C@]2(O)[C@@]3(C)[C@@H](O)CCC(C)(C)[C@@H]3[C@H](O)[C@H](OC(C)=O)[C@@]2(C)O1 [Forskolin, forskolin, reference compound] |  |  |  |  |  |  |  | increase of cAMP levels (MCP-1RB receptor [1]; hek-293 cells, 20 min, 10 µM): 16 fold
2 | pertussis toxin [reference compound] |  |  |  |  |  |  |  | component resistant to inhibition (MCP-1RB receptor [2]; calcium mobilization, up to 100 ng/ml of PT): ≈ 20%; block of MCP-1-induced mobilization of intracellular calcium (MCP-1RB receptor [2]; [4]): substantially blocked; component resistant to inhibition (MCP-1RB receptor [1]; adenylyl cyclase inhibition, up to 100 ng/ml of PT): ≈ 20%; shift of the MCP-1 IC50 for cAMP accumulation (MCP-1RB receptor [1]; pertussis toxin treatment): without significantly shifting; block of MCP-1 inhibition of adenylyl cyclase (MCP-1RB receptor [1]; [4]): substantially blocked
3 | macrophage inhibitory protein-1 [MIP-1α] | no response | No response | did not compete for binding | failed to block | failed to stimulate significant calcium signals | > 1000 nM | Virtually no activation | IC50 (MIP-1α/RANTES receptor; [5]): ~0.1 nM
4 | RANTES: C--C chemokine, obtained from R&D | no response | No response | did not compete for binding | failed to block | failed to stimulate significant calcium signals | > 1000 nM | Virtually no activation | effect of prior exposure to the chemokine on the calcium response to the other chemokine (MM6 cells): could not be ablated; IC50 (MIP-1α/RANTES receptor; [5]): ~0.1 nM
5 | interleukin-8 [IL-8] | No response | No response |  | failed to block | failed to stimulate significant calcium signals |  | Virtually no activation | calcium efflux response elicited (MCP-1RA; listed as Il-8): no response; activation of the MIP-1α/RANTES receptor (MIP-1α/RANTES receptor): did not activate
6 | Gro-α: C-X-C chemokine |  |  |  | failed to block | failed to stimulate significant calcium signals | > 1000 nM | Virtually no activation | IC50 (MIP-1α/RANTES receptor; Table I, read-out: Inhibition of Adenylyl Cyclase IC50 (nM) MIP-1α/RANTES R): > 1000 nM; activation of the MIP-1α/RANTES receptor (MIP-1α/RANTES receptor): did not activate
7 | macrophage inhibitory protein-1 [MIP-1β] (protein, UniProt P13236 24-92, looked up, C--C chemokine, obtained from R&D) C-C motif chemokine 4: APMGSDPPTACCFSYTARKLPRNFVVDYYETSSLCSQPAVVFQTKRSKQVCADPSESWVQEYVYDLELN | no response | No response | did not compete for binding | failed to block | failed to stimulate significant calcium signals | > 1000 nM | Virtually no activation | 
